This series in a line: Henry solubility constant Hcp at 298.15 K (mol/(m3 Pa)). The following applies: reference: Schwardt et al. (2021).

The structures appear in SMILES notation.

For `ClC(Cl)=C(Cl)Cl` [tetrachloroethene], the “Henry solubility constant Hcp” value stood at 0.00058.
For `C=C(Cl)Cl` [1,1-dichloroethene] the value was 0.0004; for `C=CCl` [chloroethene], 0.00039.
The figure for `ClCC(Cl)Cl` [1,1,2-trichloroethane] is 0.0073.
For `ClCC(Cl)(Cl)Cl` [1,1,1,2-tetrachloroethane] the value was 0.0045; for `ClC=C(Cl)Cl` [trichloroethene], 0.001; for `CCc1ccccc1` [ethylbenzene], 0.0013.
As for `Clc1ccccc1` [chlorobenzene], the “Henry solubility constant Hcp” value is 0.002.
On to `Cc1ccc(C)cc1` [1,4-dimethylbenzene], for which the “Henry solubility constant Hcp” value is 0.001.

For the origin of these results see Sander's compilation of Henry's law constants (doi:10.1016/j.chemosphere.2021.129858).
